Reference: paper PMC7492732, “Offloading Role of a Discrete Thioesterase in Type II Polyketide Biosynthesis” (mBio, 2020)

Target: T1, FscTE (Streptomyces sp. FR-008, UniProt Q6W5Q5)
T1 construct: His6 tag, pET28a, expressed in E. coli BL21(DE3)/pGro7
T1 sequence (Q6W5Q5 1-285): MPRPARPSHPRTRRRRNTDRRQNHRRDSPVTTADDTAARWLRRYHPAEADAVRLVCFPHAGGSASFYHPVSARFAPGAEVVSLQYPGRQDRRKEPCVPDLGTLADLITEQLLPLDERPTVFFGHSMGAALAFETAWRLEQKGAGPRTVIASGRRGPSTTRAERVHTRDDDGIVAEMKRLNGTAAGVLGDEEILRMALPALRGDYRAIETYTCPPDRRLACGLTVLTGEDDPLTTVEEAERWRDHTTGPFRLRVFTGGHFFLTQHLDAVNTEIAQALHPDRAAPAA
Experiment: DTNB spectrophotometric assay at […] nm
Format: biochemical

CCCC(=O)SCCNC(C)=O [butyryl-SNAC]
DTNB spectrophotometric assay at 412 nm: A similar phenomenon was observed when butyryl-SNAC was used as a substrate
